In ChEMBL document CHEMBL1201862, “PubChem BioAssay data set” (2004):
Calls of active or inactive are those of the source. Rule as the data show it: actives have a measured IC50 and inactives only a lower limit.

Target: Envelope glycoprotein gp160 (Human immunodeficiency virus 1, UniProt Q6QLK5)
Assay: cell-free HIV fusion peptide-binding blockers – biochemical, uHTS, fluorescence dequenching, […] (AID 1986)

Chain of Envelope glycoprotein gp160 (Q6QLK5 whole entry, the tested form may be a part): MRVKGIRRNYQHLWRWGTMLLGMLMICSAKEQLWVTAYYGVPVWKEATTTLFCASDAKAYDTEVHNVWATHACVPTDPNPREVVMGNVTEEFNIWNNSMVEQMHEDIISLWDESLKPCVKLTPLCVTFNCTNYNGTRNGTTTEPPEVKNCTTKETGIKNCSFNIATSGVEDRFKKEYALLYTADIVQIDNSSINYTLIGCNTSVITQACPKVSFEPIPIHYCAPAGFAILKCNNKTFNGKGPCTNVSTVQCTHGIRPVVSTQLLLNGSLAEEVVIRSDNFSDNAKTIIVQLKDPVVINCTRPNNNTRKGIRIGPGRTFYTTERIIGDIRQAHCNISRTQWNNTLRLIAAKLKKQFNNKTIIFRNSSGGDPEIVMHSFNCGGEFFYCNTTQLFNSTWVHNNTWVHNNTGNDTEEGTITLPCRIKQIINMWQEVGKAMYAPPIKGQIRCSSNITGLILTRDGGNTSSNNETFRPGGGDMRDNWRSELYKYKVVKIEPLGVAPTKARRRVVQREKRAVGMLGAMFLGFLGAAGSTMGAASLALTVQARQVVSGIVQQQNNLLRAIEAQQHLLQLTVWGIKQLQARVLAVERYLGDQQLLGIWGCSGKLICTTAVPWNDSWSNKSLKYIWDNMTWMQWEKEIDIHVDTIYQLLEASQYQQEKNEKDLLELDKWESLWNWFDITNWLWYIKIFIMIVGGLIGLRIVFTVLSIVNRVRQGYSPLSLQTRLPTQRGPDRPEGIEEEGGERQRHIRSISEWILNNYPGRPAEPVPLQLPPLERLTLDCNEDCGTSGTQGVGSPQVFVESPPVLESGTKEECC

O=C(O)CSc1cc(C(=O)c2ccccc2O)cn2c(=O)c3c4c(sc3nc12)CCCC4
IC50: 20.7 µM (active)
